Among the data in patent US11319324B2, “Pyrazolo-pyrrolo-pyrimidine-dione derivatives as P2X3 inhibitors” (Bayer Aktiengesellschaft, priority 2017, dated 2022) are IC50 values, retold here.

Structures are written as SMILES.

This experiment addresses T1, human P2X3 receptor (Homo sapiens, UniProt P56373).
T1 sequence (P56373 1-397): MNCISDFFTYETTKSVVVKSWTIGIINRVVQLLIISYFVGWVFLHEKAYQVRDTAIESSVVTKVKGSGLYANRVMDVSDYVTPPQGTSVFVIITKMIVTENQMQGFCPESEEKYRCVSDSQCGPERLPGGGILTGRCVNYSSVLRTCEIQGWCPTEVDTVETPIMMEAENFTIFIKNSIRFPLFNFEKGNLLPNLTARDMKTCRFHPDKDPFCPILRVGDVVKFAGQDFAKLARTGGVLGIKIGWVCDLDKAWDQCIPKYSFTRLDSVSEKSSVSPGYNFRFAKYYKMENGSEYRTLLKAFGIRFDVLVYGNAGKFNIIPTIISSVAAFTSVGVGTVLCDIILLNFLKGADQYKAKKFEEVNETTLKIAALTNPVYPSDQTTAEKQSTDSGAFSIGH
In words: Intracellular calcium measurement to assess antagonist activity at human P2X3 receptors (hP2X3 CHO), photina luminescence. It is filed as cell-based. More on the design: expressed in transfected cells; host or cells: Chinese hamster ovary (CHO) cells. Conditions: column 2), CHO cells, agonist α,β-methylene-ATP at EC50. The procedure:
2) Intracellular Calcium Measurement to Assess Antagonist Activity at Human P2X3 Receptors (hP2X3 CHO)
The determination of antagonistic activity at the P2X3 receptor of the compounds of the invention was performed by use of a recombinant cell line. This cell line derives originally from the Chinese hamster ovary (CHO) cell line (Tjio J. H.; Puck T. T., 1958, J. Exp. Med. 108: 259-271). The cell line is stably transfected with the human P2X3 receptor and a calcium-sensitive photoprotein, mitochondrial photina, which, after reconstitution with the cofactor coelenterazine, emits light in dependence of calcium binding [Bovolenta S, Foti M, Lohmer S, Corazza S., J Biomol Screen. 2007 August; 12(5):694-704]. The strength of the photina luminescence signal corresponds to the level of receptor activation upon agonist binding. An inhibitor would decrease the signal depending on its potency and concentration. Bioluminescence was detected using a suitable luminometer [Milligan G, Marshall F, Rees S, Trends in Pharmacological Sciences 17,235-237 (1996)].
On the day before the assay, the cells were plated out in culture medium (DMEM/F12 (PAN, P04-41451), 10% FCS) in 384-well microtiter plates and kept in a cell incubator (96% humidity, 5% v/v CO2, […]). On the day of the assay medium was replaced by 2 mM Ca-tyrode buffer containing 5 μg/ml coelenterazine. Plates were incubated for 3 hours at 37° C. (96% humidity, 5% v/v CO2). […] The resulting light signal was measured immediately in the luminometer.
For orientation: Calcium flux is commonly read through the fluorescence of an indicator in the cells.

Broadly, the IC50 is the midpoint of a concentration-inhibition curve. As for `CCc1cc2n(CC(=O)Nc3ccc(F)cn3)c3c(c(=O)n2n1)CN(C(C)CO)C3=O` (racemic) [Example 137, 2-{2-ethyl-6-[(±)-1-hydroxypropan-2-yl]-5,8-dioxo-5,6,7,8-tetrahydro-4H-pyrazolo[1,5-a]pyrrolo[3,4-d]pyrimidin-4-yl}-N-(5-fluoropyridin-2-yl)acetamide], the IC50 was found to be 155 nM.
As for `CC(C)N1Cc2c(n(CC(=O)Nc3ccc(F)cn3)c3cc([C@@H]4CCOC4)nn3c2=O)C1=O` (single isomer, unassigned) [Example 280, 2-{5,8-dioxo-2-[oxolan-3-yl]-6-(propan-2-yl)-5,6,7,8-tetrahydro-4H-pyrazolo[1,5-a]pyrrolo[3,4-d]pyrimidin-4-yl}-N-(5-fluoropyridin-2-yl)acetamide], the IC50 is 57 nM.
Next, `CC(C)N1Cc2c(n(CC(=O)Nc3ccc(F)cn3)c3cc([C@H]4CCOC4)nn3c2=O)C1=O` (single isomer, unassigned) [Example 281, 2-{5,8-dioxo-2-[oxolan-3-yl]-6-(propan-2-yl)-5,6,7,8-tetrahydro-4H-pyrazolo[1,5-a]pyrrolo[3,4-d]pyrimidin-4-yl}-N-(5-fluoropyridin-2-yl)acetamide]: 42 nM; `CC(C)N1Cc2c(n(CC(=O)Nc3ccc(F)cn3)c3cc(C(=O)O)nn3c2=O)C1=O` [Example 84, 4-{2-[(5-Fluoropyridin-2-yl)amino]-2-oxoethyl}-5,8-dioxo-6-(propan-2-yl)-5,6,7,8-tetrahydro-4H-pyrazolo[1,5-a]pyrrolo[3,4-d]pyrimidine-2-carboxylic acid]: 1400 nM.
With `CCc1cc2n(CC(=O)Nc3ccc(F)cn3)c3c(c(=O)n2n1)CN(C1CCN(C)CC1)C3=O` [Example 87], the IC50 is 1650 nM.
Next, `O=C(Cn1c2c(c(=O)n3nc(C(F)(F)F)cc13)CN(CCN1CCOCC1)C2=O)Nc1ccc(F)cn1` [Example 103]: 143 nM; `O=C(Cn1c2c(c(=O)n3nc(Br)cc13)CN(CCN1CCOCC1)C2=O)Nc1ccc(F)cn1` [Example 111]: 225 nM.
As for `CCc1cc2n(CC(=O)Nc3ccc(F)cn3)c3c(c(=O)n2n1)CN(CC1CCC1)C3=O` [Example 113], the IC50 worked out at 113 nM.
Consider `CCc1cc2n(CC(=O)Nc3ccc(F)cn3)c3c(c(=O)n2n1)CN(CC1CN(C(=O)OC(C)(C)C)C1)C3=O` [Example 115], for which the IC50 was determined as 205 nM.
Next, `CCc1cc2n(CC(=O)Nc3ccc(F)cn3)c3c(c(=O)n2n1)CN(C1CN(C(=O)OC(C)(C)C)C1)C3=O` [Example 116]: 585 nM; `CCc1cc2n(CC(=O)Nc3ccc(F)cn3)c3c(c(=O)n2n1)CN(C1CCCOC1)C3=O` (centres unmarked) [Example 118]: 131 nM; `CCc1cc2n(CC(=O)Nc3ccc(F)cn3)c3c(c(=O)n2n1)CN(C1CCS(=O)(=O)CC1)C3=O` [Example 119]: 470 nM.
Consider `CCOC(=O)c1cc2n(CC(=O)Nc3ccc(F)cn3)c3c(c(=O)n2n1)CN(C1CCOCC1)C3=O` [Example 122], for which the IC50 was 94 nM.
With `CCOC(=O)c1cc2n(CC(=O)Nc3ccc(F)cn3)c3c(c(=O)n2n1)CN(CCN1CCOCC1)C3=O` [Example 123] the figure was 21 nM.
On to `CCOC(=O)c1cc2n(CC(=O)Nc3ccc(F)cn3)c3c(c(=O)n2n1)CN(Cc1ccccn1)C3=O` [Example 124], for which the IC50 is 10 nM.
For the compound `Cc1cc2n(CC(=O)Nc3ccc(F)cn3)c3c(c(=O)n2n1)CN(CC1CCO1)C3=O` (centres unmarked) [Example 125], the IC50 was determined as 240 nM.
Consider `CCc1cc2n(CC(=O)Nc3ccc(F)cn3)c3c(c(=O)n2n1)CN(CC)C3=O` [Example 126], for which the IC50 was found to be 57 nM.
Take `CCc1cc2n(CC(=O)Nc3ccc(F)cn3)c3c(c(=O)n2n1)CN(C)C3=O` [Example 127]: the IC50 was determined as 43 nM.
Turning to `O=C(Cn1c2c(c(=O)n3nc(-c4ccncc4)cc13)CN(Cc1ccc(F)cc1)C2=O)Nc1ccc(F)cn1` [Example 129], the IC50 stood at 53 nM.
As to `O=C(Cn1c2c(c(=O)n3nc(-c4ccncc4)cc13)CN(Cc1ccccn1)C2=O)Nc1ccc(F)cn1` [Example 130], the IC50 was 14 nM.
